Measurements as given in US12398101B2, “Herbicidal 2-azaspiro[3-5]nonane compounds” (SYNGENTA CROP PROTECTION AG, priority 2018, dated 2025).

Columns and labels:
Type in all cases: in vivo
Avena fatua (AVEFA) [1] = experiment: Glasshouse herbicide test, pre-emergence application; conditions: 250 g/h, evaluated after 13 days
Experimental: (§1) Seeds of a variety of test species are sown in standard soil in pots (Lolium perenne (LOLPE), Setaria faberi (SETFA), Echinochloa crus-galli (ECHCG), Avena fatua (AVEFA)). After cultivation for one day (pre-emergence) or after 8 days cultivation (post-emergence) under controlled conditions in a glasshouse (at 24/16° C., day/night; 14 hours light; 65% humidity), the plants are sprayed with an aqueous spray solution derived from the formulation of the technical active ingredient in acetone/water (50:50) solution containing 0.5% Tween 20 (polyoxyethelyene sorbitan monolaurate, CAS RN 9005-64-5). Compounds are applied at 250 g/h. The test plants are then grown in a glasshouse under controlled conditions in a glasshouse (at 24/16° C., day/night; 14 hours light; 65% humidity) and watered twice daily. After 13 days for pre and post-emergence, the test is evaluated for the percentage damage caused to the plant. The biological activities are shown in the following table on a five point scale (5=80-100%; 4=60-79%; 3=40-59%; 2=20-39%; 1=0-19%).

[2] = system: Echinochloa crus-galli (ECHCG); experiment: as above; conditions: 250 g/h, evaluated after 13 days
Experimental: as §1

Lolium perenne (LOLPE) [3] = experiment: as above; conditions: 250 g/h, evaluated after 13 days
Experimental: as §1

Setaria faberi (SETFA) [4] = experiment: as above; conditions: 250 g/h, evaluated after 13 days
Experimental: as §1

Avena fatua (AVEFA) [5] = experiment: Glasshouse herbicide test, post-emergence application; conditions: 250 g/h, evaluated after 13 days
Experimental: as §1

[6] = system: Echinochloa crus-galli (ECHCG); experiment: as above; conditions: 250 g/h, evaluated after 13 days
Experimental: as §1

Lolium perenne (LOLPE) [7] = experiment: as above; conditions: 250 g/h, evaluated after 13 days
Experimental: as §1

Setaria faberi (SETFA) [8] = experiment: as above; conditions: 250 g/h, evaluated after 13 days
Experimental: as §1

wheat = experiment: Prior art comparison, post-emergence, crop plants; conditions: for Wheat (percentage damage): post-emergence
barley = experiment: Prior art comparison, post-emergence, crop plants
[9] = system: Panicum miliaceum (PANMI); experiment: Prior art comparison, post-emergence, representative weed; conditions: for PANMI (percentage damage): post-emergence

## CC#Cc1cc(C)c(C2C(=O)CC3(CC2=O)CN(C(C)=O)C3)c(C)c1 [Compound 1.001, 2-acetyl-7-(2,6-dimethyl-4-prop-1-ynyl-phenyl)-2-azaspiro[3.5]nonane-6,8-dione]
Avena fatua (AVEFA) [1]
  percentage damage caused to the plant, five point scale, AVEFA: 5 (5=80-100%)
[2]
  percentage damage caused to the plant, five point scale, ECHCG: 2 (2=20-39%)
Lolium perenne (LOLPE) [3]
  percentage damage caused to the plant, five point scale, LOLPE: 5 (5=80-100%)
Setaria faberi (SETFA) [4]
  percentage damage caused to the plant, five point scale, SETFA: 5 (5=80-100%)
Avena fatua (AVEFA) [5]
  percentage damage caused to the plant, five point scale, AVEFA: 5 (5=80-100%)
[6]
  percentage damage caused to the plant, five point scale, ECHCG: 5 (5=80-100%)
Lolium perenne (LOLPE) [7]
  percentage damage caused to the plant, five point scale, LOLPE: 5 (5=80-100%)
Setaria faberi (SETFA) [8]
  percentage damage caused to the plant, five point scale, SETFA: 5 (5=80-100%)
wheat; Rate 60
  Wheat (percentage damage): 0
wheat; Rate 60 + CQC (safener cloquintocet-mexyl at 50 g/ha)
  Wheat (percentage damage): 0
wheat; Rate 125
  Wheat (percentage damage): 0
wheat; wheat and barley, summary of Table B3
  crop safety vis-à-vis prior art compound C1: significantly improved crop safety
barley; Rate 60
  Barley (percentage damage): 0
barley; Rate 125
  Barley (percentage damage): 0
[9]; Rate 60
  PANMI (percentage damage): 100
[9]; Rate 125
  PANMI (percentage damage): 100
[9]; summary of Table B3
  overall weed control: good overall weed control

## CC#Cc1cc(C)c(C2=C(OC(=O)OC)CC3(CC2=O)CN(C(C)=O)C3)c(C)c1 [Compound 2.001, 2-acetyl-7-(2,6-dimethyl-4-prop-1-ynyl-phenyl)-6-oxo-2-azaspiro[3.5]non-7-en-8-yl] methyl carbonate]
Avena fatua (AVEFA) [1]
  percentage damage caused to the plant, five point scale, AVEFA: 5 (5=80-100%)
[2]
  percentage damage caused to the plant, five point scale, ECHCG: 5 (5=80-100%)
Lolium perenne (LOLPE) [3]
  percentage damage caused to the plant, five point scale, LOLPE: 5 (5=80-100%)
Setaria faberi (SETFA) [4]
  percentage damage caused to the plant, five point scale, SETFA: 5 (5=80-100%)
Avena fatua (AVEFA) [5]
  percentage damage caused to the plant, five point scale, AVEFA: 5 (5=80-100%)
[6]
  percentage damage caused to the plant, five point scale, ECHCG: 5 (5=80-100%)
Lolium perenne (LOLPE) [7]
  percentage damage caused to the plant, five point scale, LOLPE: 5 (5=80-100%)
Setaria faberi (SETFA) [8]
  percentage damage caused to the plant, five point scale, SETFA: 5 (5=80-100%)

## CC#Cc1cc(C)c(C2C(=O)CC3(CC2=O)CN(C(=O)NC(=O)C(C)(C)C)C3)c(OC)c1 [Compound 1.019]
Avena fatua (AVEFA) [1]
  percentage damage caused to the plant, five point scale, AVEFA: 4 (4=60-79%)
[2]
  percentage damage caused to the plant, five point scale, ECHCG: 5 (5=80-100%)
Lolium perenne (LOLPE) [3]
  percentage damage caused to the plant, five point scale, LOLPE: 4 (4=60-79%)
Setaria faberi (SETFA) [4]
  percentage damage caused to the plant, five point scale, SETFA: 4 (4=60-79%)
Avena fatua (AVEFA) [5]
  percentage damage caused to the plant, five point scale, AVEFA: 5 (5=80-100%)
[6]
  percentage damage caused to the plant, five point scale, ECHCG: 4 (4=60-79%)
Lolium perenne (LOLPE) [7]
  percentage damage caused to the plant, five point scale, LOLPE: 5 (5=80-100%)
Setaria faberi (SETFA) [8]
  percentage damage caused to the plant, five point scale, SETFA: 5 (5=80-100%)

## CC#Cc1cc(C)c(C2C(=O)CC3(CC2=O)CN(C(=O)C(C)(C)C)C3)c(C)c1 [Compound 1.010]
Avena fatua (AVEFA) [1]
  percentage damage caused to the plant, five point scale, AVEFA: 5 (5=80-100%)
[2]
  percentage damage caused to the plant, five point scale, ECHCG: 5 (5=80-100%)
Lolium perenne (LOLPE) [3]
  percentage damage caused to the plant, five point scale, LOLPE: 5 (5=80-100%)
Setaria faberi (SETFA) [4]
  percentage damage caused to the plant, five point scale, SETFA: 5 (5=80-100%)
Avena fatua (AVEFA) [5]
  percentage damage caused to the plant, five point scale, AVEFA: 5 (5=80-100%)
[6]
  percentage damage caused to the plant, five point scale, ECHCG: 5 (5=80-100%)
Lolium perenne (LOLPE) [7]
  percentage damage caused to the plant, five point scale, LOLPE: 5 (5=80-100%)
Setaria faberi (SETFA) [8]
  percentage damage caused to the plant, five point scale, SETFA: 5 (5=80-100%)

## CC#Cc1cc(C)c(C2C(=O)CC3(CC2=O)CN(C(=O)NC(C)(C)C)C3)c(C)c1 [Compound 1.006]
Avena fatua (AVEFA) [1]
  percentage damage caused to the plant, five point scale, AVEFA: 2 (2=20-39%)
[2]
  percentage damage caused to the plant, five point scale, ECHCG: 5 (5=80-100%)
Lolium perenne (LOLPE) [3]
  percentage damage caused to the plant, five point scale, LOLPE: 5 (5=80-100%)
Setaria faberi (SETFA) [4]
  percentage damage caused to the plant, five point scale, SETFA: 5 (5=80-100%)
Avena fatua (AVEFA) [5]
  percentage damage caused to the plant, five point scale, AVEFA: 5 (5=80-100%)
[6]
  percentage damage caused to the plant, five point scale, ECHCG: 5 (5=80-100%)
Lolium perenne (LOLPE) [7]
  percentage damage caused to the plant, five point scale, LOLPE: 5 (5=80-100%)
Setaria faberi (SETFA) [8]
  percentage damage caused to the plant, five point scale, SETFA: 5 (5=80-100%)

## CC#Cc1cc(C)c(C2C(=O)CC3(CC2=O)CN(S(=O)(=O)CC)C3)c(OC)c1 [Compound 1.014]
Avena fatua (AVEFA) [1]
  percentage damage caused to the plant, five point scale, AVEFA: 5 (5=80-100%)
[2]
  percentage damage caused to the plant, five point scale, ECHCG: 5 (5=80-100%)
Lolium perenne (LOLPE) [3]
  percentage damage caused to the plant, five point scale, LOLPE: 5 (5=80-100%)
Setaria faberi (SETFA) [4]
  percentage damage caused to the plant, five point scale, SETFA: 5 (5=80-100%)
Avena fatua (AVEFA) [5]
  percentage damage caused to the plant, five point scale, AVEFA: 5 (5=80-100%)
[6]
  percentage damage caused to the plant, five point scale, ECHCG: 5 (5=80-100%)
Lolium perenne (LOLPE) [7]
  percentage damage caused to the plant, five point scale, LOLPE: 5 (5=80-100%)
Setaria faberi (SETFA) [8]
  percentage damage caused to the plant, five point scale, SETFA: 5 (5=80-100%)

## CC#Cc1cc(C)c(C2C(=O)CC3(CC2=O)CN(C(=O)C2CC2)C3)c(C)c1 [Compound 1.008, 2-(cyclopropanecarbonyl)-7-(2,6-dimethyl-4-prop-1-ynyl-phenyl)-2-azaspiro[3.5]nonane-6,8-dione]
Avena fatua (AVEFA) [1]
  percentage damage caused to the plant, five point scale, AVEFA: 5 (5=80-100%)
[2]
  percentage damage caused to the plant, five point scale, ECHCG: 5 (5=80-100%)
Lolium perenne (LOLPE) [3]
  percentage damage caused to the plant, five point scale, LOLPE: 5 (5=80-100%)
Setaria faberi (SETFA) [4]
  percentage damage caused to the plant, five point scale, SETFA: 5 (5=80-100%)
Avena fatua (AVEFA) [5]
  percentage damage caused to the plant, five point scale, AVEFA: 5 (5=80-100%)
[6]
  percentage damage caused to the plant, five point scale, ECHCG: 5 (5=80-100%)
Lolium perenne (LOLPE) [7]
  percentage damage caused to the plant, five point scale, LOLPE: 5 (5=80-100%)
Setaria faberi (SETFA) [8]
  percentage damage caused to the plant, five point scale, SETFA: 5 (5=80-100%)
